Holding throughout (format): cell-based
In test [1] the test system is gastric cancer cell line NCI-N87. Nature of the test: MTT assay of cellular proliferation, NCI-N87. The settings on record: Homo sapiens, read-out: EC50: Concentration that inhibits 50% of proliferation. The protocol: (§1) Six lung cancer cell lines (NCI-H23, NCI-H460, NCI-H596, NCI-H2170, Calu-6 and A549), two colon cancer cell lines (HCT116 and SW460), one breast cancer cell line MDA-MB-231, one gastric cancer cell line NCI-N87, one prostate cancer cell line DU145, one cervical cancer cell line Hela, and one glioblastoma cell line T98G were obtained from ATCC. The T2 HCC cell line was derived from a mouse liver cancer model initiated by a transgene of MYC (Reference). All cell lines were cultured in DMEM (Gibco, Cleveland, TN, USA) supplemented with 5% fetal bovine serum (Gibco), penicillin (100 U/mL)-streptomycin (100 μg/mL) (Gibco, Cat. No. 15140-122), 2 mM L-glutamine (Gibco, 200 mM solution, Cat. No. 25030081), and 1 mM sodium pyruvate (Gibco, 100 mM solution, Cat. No. 11360070) at 37° C. in a humidified incubator that was maintained at 5% CO2.
(§2) The MTT assay measures cellular metabolic activity as a proxy for cell viability and involves the conversion of the water-soluble yellow dye MTT [3-(4,5-dimethylthiazol-2-yl)-2,5-diphenyltetrazolium bromide] into an insoluble purple formazan by the action of mitochondrial reductase. Formazan is then solubilized and its concentration is determined by measuring the optical density (OD) value at a wavelength of 570 nm. The value is in proportional to the number of live cells with excellent linearity up to ˜10^6 cells per well. The MTT assay was used to determine the EC50 value, the concentration of a compound that leads to 50% inhibition of cellular proliferation. Briefly, cells were split when growing to the mid-Log phase. Cells in 100 μL of culture medium were seeded into each well of 96-well microplates and cultivated for 15˜24 hours to reach a confluence of 20˜30% and were then exposed to drugs at concentrations ranging from 1 nM to 10 μM. At the endpoint, 20 μL of a MTT stock solution in DMSO (5 mg/mL) was added to each well that contains […] of DMEM. The microplates were left in the cell culture incubator for 3˜4 h before subjected to solubilization and determination of formazan at A570 in a microplate reader (BioTek ELX808iu). […] Therefore, these compounds might hold a broad utility in the treatment of a large variety of human malignancies.
For orientation: Tetrazolium assays rely on reduction of a dye to a coloured formazan, in cell work by metabolically active cells.

Test [2] shares this test system. The experiment in a line: Minimal effective concentration that elicits polyploidy, NCI-N87. To be noted: Homo sapiens, read-out: MECP: Minimal effective concentration that elicits polyploidy.
The test system of test [3] is lung cancer cell line NCI-H23. The experiment in a line: MTT assay of cellular proliferation, NCI-H23. The settings on record: Homo sapiens, read-out: EC50: Concentration that inhibits 50% of proliferation. The protocol: as §1, §2
The test system of test [4] is RPEMYC^H2B-GFP cells. The experiment in a line: Mechanism-informed phenotypic screening assay (mitotic arrest, polyploidy; GE IN-Cell Analyzer 2000). To be noted: 20 nM to 20 μM, 24, 48 or 72 hours, read-out: Mitotic Arrest (≥5%).
Test [5] deals with breast cancer cell line MDA-MB-231. Nature of the test: MTT assay of cellular proliferation, MDA-MB-231. To be noted: Homo sapiens, read-out: EC50: Concentration that inhibits 50% of proliferation. The protocol: as §1, §2
Test [6] concerns cervical cancer cell line Hela. The experiment in a line: Minimal effective concentration that elicits polyploidy, Hela. To be noted: Homo sapiens, read-out: MECP: Minimal effective concentration that elicits polyploidy.
Test [7] has as its system liver cancer cell line T2 HCC. The experiment in a line: Minimal effective concentration that elicits polyploidy, T2 HCC. To be noted: Mus musculus, read-out: MECP: Minimal effective concentration that elicits polyploidy.
Test [8] deals with liver cancer cell line T2 HCC. Nature of the test: MTT assay of cellular proliferation, T2 HCC. The settings on record: Mus musculus, read-out: EC50: Concentration that inhibits 50% of proliferation. The protocol: as §1, §2
The test system of test [9] is RPEMYC^H2B-GFP cells. Nature of the test: Mechanism-informed phenotypic screening assay (mitotic arrest, polyploidy; GE IN-Cell Analyzer 2000). To be noted: 20 nM to 20 μM, 24, 48 or 72 hours, read-out: Min. Effective conc. for polyploidy (≥5%). In a few lines: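 Cells expressing Histone 2B-EGFP (RPEMYC^H2B-GFP) were plated 18-24 h before exposure to compounds at 20 nM to 20 μM. At 24, 48 or 72 h, imaging scored mitotic arrest or change in DNA content. Value is the lowest concentration giving polyploid accumulation at 48 h.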

In test [10] the test system is lung cancer cell line NCI-H23. Nature of the test: Minimal effective concentration that elicits polyploidy, NCI-H23. The settings on record: Homo sapiens, read-out: MECP: Minimal effective concentration that elicits polyploidy.
The test system of test [11] is cervical cancer cell line Hela. The experiment in a line: MTT assay of cellular proliferation, Hela. The settings on record: Homo sapiens, read-out: EC50: Concentration that inhibits 50% of proliferation. The protocol:
as §1, §2

The subject of test [12] is colon cancer cell line HCT116. The experiment in a line: MTT assay of cellular proliferation, HCT116. The settings on record: Homo sapiens, HCT-116, read-out: EC50: Concentration that inhibits 50% of proliferation. The protocol: as §1, §2
The test system of test [13] is lung cancer cell line A549. Nature of the test: MTT assay of cellular proliferation, A549. To be noted: Homo sapiens, read-out: EC50: Concentration that inhibits 50% of proliferation. The protocol: as §1, §2
The subject of test [14] is lung cancer cell line A549. Nature of the test: Minimal effective concentration that elicits polyploidy, A549. The settings on record: Homo sapiens, read-out: MECP: Minimal effective concentration that elicits polyploidy.
For test [15], the system named is colon cancer cell line SW460. The experiment in a line: MTT assay of cellular proliferation, SW460. The settings on record: Homo sapiens, SW480; read-out: EC50: Concentration that inhibits 50% of proliferation. The protocol: as §1, §2
The next test concerns SW480. Nature of the test: Minimal effective concentration that elicits polyploidy, SW480. The settings on record: Homo sapiens, read-out: MECP: Minimal effective concentration that elicits polyploidy.
Test [16] has as its system colon cancer cell line HCT116. Nature of the test: Minimal effective concentration that elicits polyploidy, HCT116. To be noted: Homo sapiens, HCT-116, read-out: MECP: Minimal effective concentration that elicits polyploidy.
Test [17] concerns breast cancer cell line MDA-MB-231. Nature of the test: Minimal effective concentration that elicits polyploidy, MDA-MB-231. The settings on record: Homo sapiens, read-out: MECP: Minimal effective concentration that elicits polyploidy.

Read-outs that look alike come from different tables or passages of the source.

`COc1cc(Oc2ncccc2-c2ccnc(N)n2)cc(-n2cccn2)c1` [Compound 26, 4-(2-(3-methoxy-5-(1H-pyrazol-1-yl)phenoxy)pyridin-3-yl)pyrimidin-2-amine]: the EC50 in test [1], in test [3], in test [5], in [8], in test [11] and in [12] was 0.001 to 1 µM in each case. In addition, the EC50 in test [13] and in test [15] was 0.001 to 1 µM each time. In addition, the minimal effective concentration was 0.001 to 1 µM in [2]; 1 µM with RPEMYC^H2B-GFP cells [4]; 0.001 to 1 µM in test [6]; 0.001 to 1 µM in [7]; 1 µM in the test with RPEMYC^H2B-GFP cells [9]; 0.001 to 1 µM in test [10]. The minimal effective concentration (in test [14]; with SW480; in [16]; in [17]) was 0.001 to 1 µM in each case.
For the compound `COc1cc(Oc2ncccc2-c2ccncc2)cc(C(=O)O)c1` [Compound 3, 3-([3,4′-bipyridin]-2-yloxy)-5-methoxybenzoic acid], the EC50 in [1], in test [3], in test [5], in test [8], in [11] and in [12] was 0.001 to 1 µM throughout. The EC50 in [13] and in test [15] was 0.001 to 1 µM in each case. The minimal effective concentration in [2] is 0.001 to 1 µM; in the test on RPEMYC^H2B-GFP cells [4] it was > 30 µM; in test [6], 0.001 to 1 µM; in [7] it was 0.001 to 1 µM; with RPEMYC^H2B-GFP cells [9], > 30 µM; in test [10], 0.001 to 1 µM. In addition, the minimal effective concentration (in test [14]; with SW480; in [16]; in [17]) was 0.001 to 1 µM each time.
As to `CNC(=O)c1cc(OC)cc(Oc2ncccc2-c2ccnc(Cl)c2)c1` [Compound 45, 3-((2′-chloro-[3,4′-bipyridin]-2-yl)oxy)-5-methoxy-N-methylbenzamide], the EC50 in test [1], in [3], in test [5], in test [8], in [11] and in [12] was 0.001 to 1 µM in each case. Moreover, the EC50 in [13] and in [15] was 0.001 to 1 µM throughout. Further, the minimal effective concentration in test [2] was 0.001 to 1 µM; in the test with RPEMYC^H2B-GFP cells [4], 1 µM; in test [6], 0.001 to 1 µM; in test [7], 0.001 to 1 µM; in the test on RPEMYC^H2B-GFP cells [9], 1 µM; in [10], 0.001 to 1 µM. Further, the minimal effective concentration (in test [14]; with SW480; in test [16]; in test [17]) was 0.001 to 1 µM in each case.
For `COc1cc(Oc2ncccc2-c2ccnc(C)c2)cc(-n2cccn2)c1` [Compound 41, 2-(3-methoxy-5-(1H-pyrazol-1-yl)phenoxy)-2′-methyl-3,4′-bipyridine], the EC50 in [1], in test [3], in test [5], in test [8], in test [11] and in test [12] was 0.001 to 1 µM in each case. Further, the EC50 in test [13] and in test [15] was 0.001 to 1 µM throughout. The minimal effective concentration in test [2] was 0.001 to 1 µM; with RPEMYC^H2B-GFP cells [4] it was 1 µM; in test [6], 0.001 to 1 µM; in [7] it was 0.001 to 1 µM; in the test on RPEMYC^H2B-GFP cells [9] it was 1 µM; in test [10], 0.001 to 1 µM. Moreover, the minimal effective concentration (in [14]; in the test with SW480; in test [16]; in [17]) was 0.001 to 1 µM in each case.
For the compound `COc1cc(OC)cc(Oc2ncccc2-c2cc(C)ncn2)c1` [Compound 63, 4-(2-(3,5-dimethoxyphenoxy)pyridin-3-yl)-6-methylpyrimidine], the EC50 in test [1], in test [3], in test [5], in test [8], in [11] and in test [12] was 0.001 to 1 µM each time. For the same compound, the EC50 in test [13] and in test [15] was 0.001 to 1 µM throughout. The minimal effective concentration in test [2] is 0.001 to 1 µM; in the test with RPEMYC^H2B-GFP cells [4], 1 µM; in [6], 0.001 to 1 µM; in test [7], 0.001 to 1 µM; in the test on RPEMYC^H2B-GFP cells [9], 1 µM; in [10], 0.001 to 1 µM. The minimal effective concentration (in test [14]; in the test on SW480; in test [16]; in [17]) was 0.001 to 1 µM each time.
For `COc1cc(OC)cc(Oc2ncccc2-c2ccnc(C)c2)c1` [Compound 42, 2-(3,5-dimethoxyphenoxy)-2′-methyl-3,4′-bipyridine], the EC50 in [1], in test [3], in test [5], in test [8], in test [11] and in test [12] was 0.001 to 1 µM each time. Moreover, the EC50 in test [13] and in test [15] was 0.001 to 1 µM in each case. Moreover, the minimal effective concentration was 0.001 to 1 µM in test [2]; 1 µM in the test with RPEMYC^H2B-GFP cells [4]; 0.001 to 1 µM in test [6]; 0.001 to 1 µM in [7]; 1 µM in the test with RPEMYC^H2B-GFP cells [9]; 0.001 to 1 µM in test [10]. The minimal effective concentration (in test [14]; in the test on SW480; in [16]; in [17]) was 0.001 to 1 µM each time.
